This is an account of results in patent US11000033B2, “Ketone or oxime compound, and herbicide” (NISSAN CHEMICAL CORPORATION, priority 2014, dated 2021).

Common to all, as to format: in vivo
The test system of one series is Lolium multiflorum Lam. As to the kind of experiment: Test Example 5: herbicidal effect by foliage application, plastic box (symbol K). The following applies: 320 g/ha, 3 weeks after application. A digest of the protocol:
(§1)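 After sowing into sterilized diluvial soil and growing two weeks under glass at 25° C. to 30° C., seedlings receive a uniform foliar spray of diluted emulsion. Damage is judged visually three weeks on.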

In series [1] the test system is wheat. As to the kind of experiment: Test Example 4: effect on crop by soil treatment (symbol e). The procedure, abridged: (§2)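 Grown at 25° C. to 30° C. in a greenhouse, the crops came from seed sown spot-wise in sterilized diluvial soil under roughly 1.5 cm of covering soil.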
For series [2], the system named is soybean. As to the kind of experiment: Test Example 4: effect on crop by soil treatment (symbol d). The procedure, abridged: as §2
The test system of another series is Monochoria vaginalis. As to the kind of experiment: Test Example 1: herbicidal activity, application before weed generation in submerged conditions (symbol C). The following applies: application herbicide amount 320 g/ha. The procedure, abridged: (§3)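 Paddy pre-emergence test. Formulated emulsion, water-diluted to a predetermined rate, is applied to floodwater on sowing day; rice transplanted at 2.5 leaves. Effect read at 3 weeks on a 0–5 herbicidal-ratio scale.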

Series [3] deals with directly sowed rice plant. Nature of the series: Test Example 3: effect on crop by foliage application, Wagner pot (symbol b). The note with it: application herbicide amount 320 g/ha; for b (directly sowed rice plant) effect on crop grade: Table 24. A digest of the protocol: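 Greenhouse culture at 25–30 °C of seeded rice, Cyperus difformis, Leptochloa chinensis and Echinochloa crus-galli var. crus-galli, in alluvial soil held under 0.1–0.5 cm of water in a Wagner pot.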

The next series relates to Amaranthus retroflexus. As to the kind of experiment: Test Example 5: herbicidal effect by foliage application, plastic box (symbol N). The following applies: 320 g/ha, 3 weeks after application. A digest of the protocol:
as §1

The subject of another series is Galium spurium. Nature of the series: Test Example 5: herbicidal effect by foliage application, plastic box (symbol Q). The note with it: 320 g/ha, 3 weeks after application. A digest of the protocol:
as §1

The test system of another series is Chenopodium album. As to the kind of experiment: Test Example 5: herbicidal effect by foliage application, plastic box (symbol O). The note with it: 320 g/ha, 3 weeks after application. A digest of the protocol:
as §1

The test system of series [4] is Echinochloa oryzacola Vasing. As to the kind of experiment: Test Example 1: herbicidal activity, application before weed generation in submerged conditions (symbol A). The note with it: application herbicide amount 320 g/ha. A digest of the protocol:
as §3

In series [5] the test system is soybean. As to the kind of experiment: Test Example 5: effect on crop by foliage application, plastic box (symbol d). The following applies: 320 g/ha, 3 weeks after application. The procedure, abridged:
(§4)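 Greenhouse test at 25° C. to 30° C. Seeds of crops and weeds were spot-sown in boxes of sterilized diluvial soil under roughly 1.5 cm soil cover, then grown for foliage treatment.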

The test system of series [6] is Echinochloa crus-galli var. crus-galli. Nature of the series: Test Example 5: herbicidal effect by foliage application, plastic box (symbol H). The following applies: 320 g/ha, 3 weeks after application. The procedure, abridged:
as §1

In another series the test system is rapeseed. As to the kind of experiment: Test Example 4: effect on crop by soil treatment (symbol g). The procedure, abridged: as §2
The test system of another series is Digitaria ciliaris. Nature of the series: Test Example 4: herbicidal effect by soil treatment (symbol F). A digest of the protocol:
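Seeds were sown in sterilized diluvial soil, covered with about 1.5 cm of soil, and the soil surface was sprayed with a water-diluted emulsion of the compound at a predetermined rate. Plants grew in a greenhouse at 25° C. to 30° C.; effects were scored visually 3 weeks after application.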

Another series concerns Veronica persica. Nature of the series: Test Example 5: herbicidal effect by foliage application, plastic box (symbol R). The note with it: 320 g/ha, 3 weeks after application. A digest of the protocol: as §1
A further series deals with beet. Nature of the series: Test Example 5: effect on crop by foliage application, plastic box (symbol f). The note with it: 320 g/ha, 3 weeks after application. A digest of the protocol:
as §4

Series [7] concerns wheat. Nature of the series: Test Example 5: effect on crop by foliage application, plastic box (symbol e). The note with it: 320 g/ha, 3 weeks after application. A digest of the protocol: as §4
Setting [8] is: application herbicide amount 320 g/ha.

For the compound `CC(CC1CC(OC(=O)N2CCOCC2)=C(c2c(C)cc(-c3ccc(Cl)cc3)cc2C)C1=O)=NOCC(F)(F)F` (mixture of isomers) [9-025], in the series with Lolium multiflorum Lam., the “K: Lolium multiflorum Lam., herbicidal effect grade” value is given as 0 (Herbicidal ratio of 5% or lower (almost no effect)). Also, the “Effect on crop grade, e: wheat” value in the series with wheat [1] (setting [8]) is reported as 0 (Herbicidal ratio of 5% or lower (almost no effect)). In the series with soybean [2] (setting [8]), the “Effect on crop grade, d: soybean” value was 0 (Herbicidal ratio of 5% or lower (almost no effect)). The “C (Monochoria vaginalis) herbicidal effect grade” value with Monochoria vaginalis is 1 (Herbicidal ratio of 5% or higher and lower than 20%). The “b (directly sowed rice plant) effect on crop grade” value in series [3] was 2 (Herbicidal ratio of 20% or higher and lower than 40%). Further, the “N: Amaranthus retroflexus, herbicidal effect grade” value with Amaranthus retroflexus is on record as 0 (Herbicidal ratio of 5% or lower (almost no effect)). Also, the “Q: Galium spurium, herbicidal effect grade” value in the series with Galium spurium is listed as 0 (Herbicidal ratio of 5% or lower (almost no effect)). In addition, in the series with Chenopodium album, the “O: Chenopodium album, herbicidal effect grade” value is on record as 0 (Herbicidal ratio of 5% or lower (almost no effect)). Also, the “A (Echinochloa oryzacola Vasing.) herbicidal effect grade” value in series [4] is 5 (Herbicidal ratio of 90% or more (almost completely withered)). For the same compound, in the series on soybean [5], the “d: soybean, effect on crop grade” value is 0 (Herbicidal ratio of 5% or lower (almost no effect)). The “H: Echinochloa crus-galli var. crus-galli, herbicidal effect grade” value in [6] is 1 (Herbicidal ratio of 5% or higher and lower than 20%). Further, in the series on rapeseed (setting [8]), the “Effect on crop grade, g: rapeseed” value is given as 0 (Herbicidal ratio of 5% or lower (almost no effect)). Further, the “Herbicidal effect grade, F: Digitaria ciliaris” value in the series with Digitaria ciliaris (setting [8]) is 2 (Herbicidal ratio of 20% or higher and lower than 40%). For the same compound, the “R: Veronica persica, herbicidal effect grade” value with Veronica persica was 0 (Herbicidal ratio of 5% or lower (almost no effect)). Moreover, the “f: beet, effect on crop grade” value in the series on beet is 0 (Herbicidal ratio of 5% or lower (almost no effect)). Besides, the “e: wheat, effect on crop grade” value in the series with wheat [7] is on record as 0 (Herbicidal ratio of 5% or lower (almost no effect)).
Take `COC(=O)c1ccc(CON=C(C)CC2CC(O)=C(c3c(C)cc(C)cc3C)C2=O)cc1` (stereo not shown) [1-118]: in the series with Lolium multiflorum Lam., the “K: Lolium multiflorum Lam., herbicidal effect (criteria 0-5)” value is 5 (Herbicidal ratio of 90% or more (almost completely withered)). Also, in the series with wheat [1] (320 g/ha), the “e: wheat, effect grade on crop” value was 0 (Herbicidal ratio of 5% or lower (almost no effect)). Further, the “d: soybean, effect grade on crop” value in the series on soybean [2] (320 g/ha) is given as 0 (Herbicidal ratio of 5% or lower (almost no effect)). Moreover, in the series on Monochoria vaginalis, the “Herbicidal effect grade, C: Monochoria vaginalis” value was 2 (Herbicidal ratio of 20% or higher and lower than 40%). In addition, in [3], the “effect on crop b (directly sowed rice plant), grade 0-5” value was 5 (Herbicidal ratio of 90% or more (almost completely withered)). Also, the “N: Amaranthus retroflexus, herbicidal effect (criteria 0-5)” value in the series on Amaranthus retroflexus was 0 (Herbicidal ratio of 5% or lower (almost no effect)). The “Q: Galium spurium, herbicidal effect (criteria 0-5)” value with Galium spurium is 3 (Herbicidal ratio of 40% or higher and lower than 70%). The “O: Chenopodium album, herbicidal effect (criteria 0-5)” value in the series with Chenopodium album is 3 (Herbicidal ratio of 40% or higher and lower than 70%). Moreover, in [4], the “Herbicidal effect grade, A: Echinochloa oryzacola Vasing.” value is given as 5 (Herbicidal ratio of 90% or more (almost completely withered)). Further, the “d: soybean, effect on crop (criteria 0-5)” value in the series with soybean [5] is on record as 0 (Herbicidal ratio of 5% or lower (almost no effect)). Further, the “H: Echinochloa crus-galli var. crus-galli, herbicidal effect (criteria 0-5)” value in series [6] was 2 (Herbicidal ratio of 20% or higher and lower than 40%). The “g: rapeseed, effect grade on crop” value in the series on rapeseed (320 g/ha) is 1 (Herbicidal ratio of 5% or higher and lower than 20%). Further, the “F: Digitaria ciliaris, herbicidal effect grade” value in the series on Digitaria ciliaris (320 g/ha) is 3 (Herbicidal ratio of 40% or higher and lower than 70%). Also, the “R: Veronica persica, herbicidal effect (criteria 0-5)” value with Veronica persica is 3 (Herbicidal ratio of 40% or higher and lower than 70%). Further, in the series with beet, the “f: beet, effect on crop (criteria 0-5)” value is 0 (Herbicidal ratio of 5% or lower (almost no effect)). In addition, the “e: wheat, effect on crop (criteria 0-5)” value in the series with wheat [7] is given as 0 (Herbicidal ratio of 5% or lower (almost no effect)).
As for `CC#Cc1cc(C)c(C2=C(O)CC(CC(=NOC)C(C)C)C2=O)c(C)c1` (stereo not shown) [9-006], in the series on Lolium multiflorum Lam., the “K: Lolium multiflorum Lam., herbicidal effect grade” value is listed as 5 (Herbicidal ratio of 90% or more (almost completely withered)). The “Effect on crop grade, e: wheat” value in the series with wheat [1] (setting [8]) is 5 (Herbicidal ratio of 90% or more (almost completely withered)). For the same compound, the “Effect on crop grade, d: soybean” value with soybean [2] (setting [8]) is listed as 0 (Herbicidal ratio of 5% or lower (almost no effect)). Also, the “C (Monochoria vaginalis) herbicidal effect grade” value in the series on Monochoria vaginalis is listed as 0 (Herbicidal ratio of 5% or lower (almost no effect)). For the same compound, in [3], the “b (directly sowed rice plant) effect on crop grade” value is 5 (Herbicidal ratio of 90% or more (almost completely withered)). Also, in the series with Amaranthus retroflexus, the “N: Amaranthus retroflexus, herbicidal effect grade” value is 0 (Herbicidal ratio of 5% or lower (almost no effect)). The “Q: Galium spurium, herbicidal effect grade” value in the series with Galium spurium was 0 (Herbicidal ratio of 5% or lower (almost no effect)). Further, the “O: Chenopodium album, herbicidal effect grade” value in the series with Chenopodium album was 2 (Herbicidal ratio of 20% or higher and lower than 40%). Also, the “A (Echinochloa oryzacola Vasing.) herbicidal effect grade” value in [4] is 5 (Herbicidal ratio of 90% or more (almost completely withered)). The “d: soybean, effect on crop grade” value with soybean [5] is 0 (Herbicidal ratio of 5% or lower (almost no effect)). The “H: Echinochloa crus-galli var. crus-galli, herbicidal effect grade” value in series [6] is reported as 5 (Herbicidal ratio of 90% or more (almost completely withered)). Also, the “Effect on crop grade, g: rapeseed” value with rapeseed (setting [8]) is 3 (Herbicidal ratio of 40% or higher and lower than 70%). Further, the “Herbicidal effect grade, F: Digitaria ciliaris” value with Digitaria ciliaris (setting [8]) is listed as 5 (Herbicidal ratio of 90% or more (almost completely withered)). The “R: Veronica persica, herbicidal effect grade” value in the series with Veronica persica was 4 (Herbicidal ratio of 70% or higher and lower than 90%). Also, the “f: beet, effect on crop grade” value in the series with beet is given as 0 (Herbicidal ratio of 5% or lower (almost no effect)). Also, in the series with wheat [7], the “e: wheat, effect on crop grade” value is recorded as 5 (Herbicidal ratio of 90% or more (almost completely withered)).
For the compound `CON=C(C)CC1CC(OC(C)=O)=C(c2c(C)cc(C)cc2C)C1=O` (stereo not shown) [1-005], the “K: Lolium multiflorum Lam., herbicidal effect grade” value with Lolium multiflorum Lam. was 5 (Herbicidal ratio of 90% or more (almost completely withered)). Besides, the “e (wheat) effect on crop grade” value in the series with wheat [1] (setting [8]) is 4 (Herbicidal ratio of 70% or higher and lower than 90%). Also, the “d (soybean) effect on crop grade” value in the series with soybean [2] (setting [8]) is 2 (Herbicidal ratio of 20% or higher and lower than 40%). Further, the “Herbicidal effect grade, C: Monochoria vaginalis” value with Monochoria vaginalis is recorded as 5 (Herbicidal ratio of 90% or more (almost completely withered)). Besides, the “effect on crop b (directly sowed rice plant), grade 0-5” value in series [3] was 5 (Herbicidal ratio of 90% or more (almost completely withered)). In addition, in the series on Amaranthus retroflexus, the “N: Amaranthus retroflexus, herbicidal effect grade” value was 4 (Herbicidal ratio of 70% or higher and lower than 90%). Moreover, the “Q: Galium spurium, herbicidal effect grade” value with Galium spurium was 4 (Herbicidal ratio of 70% or higher and lower than 90%). Moreover, in the series with Chenopodium album, the “O: Chenopodium album, herbicidal effect grade” value is 3 (Herbicidal ratio of 40% or higher and lower than 70%). Further, the “Herbicidal effect grade, A: Echinochloa oryzacola Vasing.” value in series [4] is 5 (Herbicidal ratio of 90% or more (almost completely withered)). Also, the “d: soybean, effect on crop grade” value in the series with soybean [5] is 4 (Herbicidal ratio of 70% or higher and lower than 90%). In series [6], the “H: Echinochloa crus-galli var. crus-galli, herbicidal effect grade” value is 5 (Herbicidal ratio of 90% or more (almost completely withered)). In the series with rapeseed (setting [8]), the “g (rapeseed) effect on crop grade” value is 4 (Herbicidal ratio of 70% or higher and lower than 90%). Besides, the “F (Digitaria ciliaris) herbicidal effect grade” value with Digitaria ciliaris (setting [8]) is 5 (Herbicidal ratio of 90% or more (almost completely withered)). In addition, the “R: Veronica persica, herbicidal effect grade” value with Veronica persica is 3 (Herbicidal ratio of 40% or higher and lower than 70%). The “f: beet, effect on crop grade” value in the series on beet is 3 (Herbicidal ratio of 40% or higher and lower than 70%). Moreover, in the series with wheat [7], the “e: wheat, effect on crop grade” value is recorded as 5 (Herbicidal ratio of 90% or more (almost completely withered)).
